Tests used:
[1] = test system: colon adenocarcinoma (CAC); test: Antitumor activity on transplantable tumor; assay type: in vivo, mice
Description: (§1) The mice and rats were purchased from the Experimental Animal Division of the Blokhin Russian Oncologic Center, the Russian Academy of Medicinal Sciences, and maintained on an ordinary food ration.
(§2) Sunflower seed oil was used as the solvent for the pharmaceutical.
(§3) Cisplatin purchased from Bristol-Myers Squibb was used in the experiments.
(§4) Abisilin was administered to animals orally every day for 10 days, or in the following schedule: on the 2nd and 6th days or on the 2nd and 11th days. […] In the combined treatment, Abisilin was administered to mice orally every day for 10 days, beginning 48 h after tumor transplantation, in a dose of 50 mg/kg; the antitumor agent Cisplatin was administered once intraperitonially (ip) in a dose of 5 mg/kg. Animals bearing the aforementioned tumors were monitored until they died. The antitumor effects of the pharmaceutical were judged from percentage tumor growth inhibition (TGI, %) in the experimental animals against control animals.
(§5) The statistical significance of the antitumor effect against the untreated control was determined by the Fisher-Student test. The difference between the compared groups was regarded as statistically reliable when p≦0.05.

melanoma B-16 = test: Antitumor activity on transplantable tumor; assay type: in vivo, mice; conditions: Abisilin 50 mg/kg per os days 2-11 and/or Cisplatin 5 mg/kg once day 2
Description: as §1, §2, §3, §4, §5

[2] = test system: breast adenocarcinoma Ca-755; test: Antitumor activity on transplantable tumor; assay type: in vivo, mice; conditions: Abisilin 50 mg/kg per os days 2-11 and/or Cisplatin 5 mg/kg once day 2
Description: as §1, §2, §3, §4, §5

[3] = test system: metastatic colorectal cancer; conditions: patients bearing metastatic colorectal cancer; increase from 15.6 months; cited from earlier work

Compound | TGI ([1]; day 7, Abisilin 50 mg/kg per os days 2-11 and/or Cisplatin 5 mg/kg once day 2) [%] | TGI ([1]; day 12, Abisilin 50 mg/kg per os days 2-11 and/or Cisplatin 5 mg/kg once day 2) [%] | TGI ([1]; day 21, Abisilin 50 mg/kg per os days 2-11 and/or Cisplatin 5 mg/kg once day 2) [%] | TGI ([1]; day 22, Cisplatin 5 mg/kg once day 2) [%] | sensitivity of the tumor in monotherapy ([1]; monotherapy, Abisilin 50 mg/kg, Cisplatin 5 mg/kg) | TGI (melanoma B-16; day 7) [%] | TGI (melanoma B-16; day 9) [%] | TGI (melanoma B-16; day 11) [%] | TGI (melanoma B-16; day 17) [%] | TGI ([2]; day 7) [%] | TGI ([2]; day 11) [%] | TGI ([2]; day 14) [%] | TGI ([2]; day 18) [%] | TGI ([2]; day 22) [%] | total survival period [3] [months]
N.N.[Cl][Pt][Cl] [Cisplatin] | 0 | 22 | 14 | 35 | insensitive | 80 | 83 | 65 | 19 | 86 | 62 | 52 | 43 | 39 | –
Avastin: monoclonal antibody drug binding vascular endothelial growth factor (VEGF); active substance bevacizumab | – | – | – | – | – | – | – | – | – | – | – | – | – | – | 20.3

Reference: patent publication US20110165271A1, “ANTITUMORAL TERPENOID PHARMACEUTICAL COMPOSITION 'ABISILIN' EXHIBITING ANGIOGENESIS-INHIBITING ACTION” (priority 2008, published 2011)
